Patent US9464113B2, “Anti-heparan sulfate peptides that block herpes simplex virus infection in vivo” (The Board of Trustees of the University of Illinois, priority 2010, dated 2016)
No end group written: not given here.

Columns and labels:
[1] = test system: β-galactosidase expressing CMV; assay: CMV entry assay in RPE cells; type: cell-based, cytomegalovirus; conditions: 0.5 mM, 60 min pre-treatment, 8 h, ONPG and X-gal
Experimental: Natural target RPE cells were incubated with G1 and G2 peptides for 60 min at room temperature before the cells were infected with β-galactosidase expressing CMV (ATCC) for 8 h. β-galactosidase assays were performed using either a soluble substrate o-nitrophenyl-β-D-galactopyranoside (ONPG at 3.0 mg/ml; ImmunoPure, Pierce) or X-gal (Sigma).
In order to detect each peptide's effect on viral entry, Lac Z-expressing reporter CMV and GFP-expressing HHV-8 viruses (Viera et al., J. Virol. 72:5182-5188 (2000)) and their natural target cells were employed for entry measurements. […] A monolayer of cultured RPE cells grown in a 96 well plate were pre-treated with G1, G2, or control peptide (Cp) at 0.5 mM concentration (FIG. 5A). A mock-treated population of RPE cells served as positive control (abbreviated as C). After 60 min of incubation at room temperature, the cells were infected with β-galactosidase expressing CMV reporter virus. After 8 h, viral entry was measured as described for FIG. 1.
The effect of CMV entry blocking activity of G1, G2 or Cp peptide for individual RPE cells was determined by X-gal staining, which yields an insoluble blue product upon hydrolysis by β-galactosidase (FIG. 5B). Individual cells were examined using a Zeiss Axiovert 100 microscope at 20× magnification. Infected cells turn blue. […]

[2] = test system: HSV-1 glycoproteins (gB, gD, gH-gL) induced membrane fusion; assay: HSV-1 glycoprotein induced cell-to-cell fusion assay, human CF target cells; type: cell-based, herpes simplex virus type-1
Text: CHO-K1 “effector” cells (grown in F-12 Ham, Invitrogen) were co-transfected with plasmids expressing four HSV-1(KOS) glycoproteins: pPEP98 (gB), pPEP99 (gD), pPEP100 (gH), and pPEP101 (gL), along with the plasmid pT7EMCLuc that expresses firefly luciferase gene under transcriptional control of the T7 promoter. Pertel et al., Virology 279:313-324 (2001). Wild-type CHO-K1 cells, which express cell-surface HS but lack functional gD receptors, were transiently transfected with HSV-1 entry receptors. Wild-type CHO-K1 cultured cells expressing HSV-1 entry receptors or naturally susceptible cells (human CF) considered as “target cells” were co-transfected with pCAGT7 that expresses T7 RNA polymerase using chicken actin promoter and CMV enhancer. Tiwari et al., FEBS Letters 581:4468-4472 (2007). Untreated effector cells expressing pT7EMCLuc and HSV-1 essential glycoproteins, and target cells expressing gD receptors transfected with T7 RNA polymerase, were used as positive controls. G2 or control peptide-treated target cells were then co-cultivated (1:1 ratio) for 18 h with effector cells for fusion. Activation of a reporter luciferase gene—as a measure of cell fusion—was examined using reporter lysis assay (Promega) at 24 hr post mixing.
Since G2 was isolated against 3-OS HS, which can mediate viral penetration by promoting membrane fusion (Tiwari et al., J. Gen. Virol. 85:805-809 (2004)), the ability of G2 to block HSV-1 glycoprotein-mediated membrane fusion was tested. Pertel et al., Virology 279:313-324 (2001). The same membrane fusion is used during polykaryocytes formation and cell-to-cell spread. Tiwari et al., FEBS Letters 581:4468-4472 (2007) and Tiwari et al., Biochemical and Biophysical Research Communications 390:382-387 (2009). […]
Control effector cells (T7 polymerase and gD, gH-gL only) (−) were also pre-incubated with G2 for the same duration. […] Membrane fusion as a surrogate for viral spread was detected by monitoring luciferase activity (FIGS. 7A and 7C). Relative luciferase units (RLUs) were determined using a Sirius luminometer (Berthold detection systems). […]

Sequence | blocking of CMV entry [1] | blocking of membrane fusion ([2]; statement only, target cells not stated, no data shown) | blocking of membrane fusion (luciferase activity) ([2]; human CF (FIG. 7A)) | syncytia (polykaryocyte) formation, Giemsa staining ([2]; human CF (FIG. 7B))
LRSRTKIIRIRH [G1, LRSRTKIIRIRH] | no effect on viral entry | does not appear to block membrane fusion | – | –
MPRRRRIRRRQK [G2, MPRRRRIRRRQK] | effective in blocking CMV entry | – | very effective in blocking membrane fusion | loss of syncytia formation
